# Measured values taken from the supplement of paper PMC10307832.
# Experiments:
# Experiment in all cases: relative viability (nuclei count vs DMSO), 5 days (fraction); higher = more cells survive
# VX-11e + Olaparib = compound: CC1=CN=C(N=C1C2=CNC(=C2)C(=O)N[C@H](CO)C3=CC(=CC=C3)Cl)NC4=C(C=C(C=C4)F)Cl [VX-11e] + O=C(c1cc(Cc2n[nH]c(=O)c3ccccc23)ccc1F)N1CCN(C(=O)C2CC2)CC1 [Olaparib] (partner 8 µM)
# Summary of the method: (§1)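 The day after seeding in 1536-well plates, lung cancer cell lines were treated by pin tool with a single drug, or with a fixed anchor-drug dose together with five library-drug doses (not always all listed) in √10 steps. After 5 days, a combined fix-and-stain solution (final 0.05% Triton X-100, 1% formaldehyde, 1 ug/ml Hoechst) was added. Nuclei counted on 4× images gave relative viability as treated counts over vehicle counts, reported as the median of duplicate plates.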
# VX-11e + Bortezomib = compound: CC1=CN=C(N=C1C2=CNC(=C2)C(=O)N[C@H](CO)C3=CC(=CC=C3)Cl)NC4=C(C=C(C=C4)F)Cl [VX-11e] + CC(C)C[C@H](NC(=O)[C@H](Cc1ccccc1)NC(=O)c1cnccn1)B(O)O [Bortezomib] (partner 0.002 µM)
# Summary of the method: as §1
# VX-11e + Pemetrexed = compound: CC1=CN=C(N=C1C2=CNC(=C2)C(=O)N[C@H](CO)C3=CC(=CC=C3)Cl)NC4=C(C=C(C=C4)F)Cl [VX-11e] + Nc1nc2[nH]cc(CCc3ccc(C(=O)N[C@@H](CCC(=O)O)C(=O)O)cc3)c2c(=O)[nH]1 [Pemetrexed] (partner 0.2 µM)
# Summary of the method: as §1
# VX-11e + Alpelisib = compound: CC1=CN=C(N=C1C2=CNC(=C2)C(=O)N[C@H](CO)C3=CC(=CC=C3)Cl)NC4=C(C=C(C=C4)F)Cl [VX-11e] + Cc1nc(NC(=O)N2CCC[C@H]2C(N)=O)sc1-c1ccnc(C(C)(C)C(F)(F)F)c1 [Alpelisib] (partner 2 µM)
# Summary of the method: as §1
Cell Line,relative viability (VX-11e + Olaparib; first compound 0.04 µM),relative viability (VX-11e + Olaparib; first compound 0.1265 µM),relative viability (VX-11e + Olaparib; first compound 1.265 µM),relative viability (VX-11e + Olaparib; first compound 4 µM),relative viability (VX-11e + Bortezomib; first compound 0.04 µM),relative viability (VX-11e + Bortezomib; first compound 0.1265 µM),relative viability (VX-11e + Bortezomib; first compound 0.4 µM),relative viability (VX-11e + Bortezomib; first compound 1.265 µM),relative viability (VX-11e + Bortezomib; first compound 4 µM),relative viability (VX-11e + Pemetrexed; first compound 0.04 µM),relative viability (VX-11e + Pemetrexed; first compound 0.1265 µM),relative viability (VX-11e + Pemetrexed; first compound 0.4 µM),relative viability (VX-11e + Pemetrexed; first compound 1.265 µM),relative viability (VX-11e + Pemetrexed; first compound 4 µM),relative viability (VX-11e + Alpelisib; first compound 0.04 µM),relative viability (VX-11e + Alpelisib; first compound 0.1265 µM),relative viability (VX-11e + Alpelisib; first compound 0.4 µM),relative viability (VX-11e + Alpelisib; first compound 1.265 µM),relative viability (VX-11e + Alpelisib; first compound 4 µM),relative viability (VX-11e + Olaparib; first compound 0.4 µM)
NCI-H460,0.427,0.429,0.315,0.236,1.15,0.986,0.91,0.648,0.102,0.0706,0.0577,0.0649,0.0564,0.0528,0.49,0.359,0.39,0.0408,0.0113,
NCI-H520,0.383,0.327,0.298,0.271,0.621,0.49,0.636,0.486,0.474,0.752,0.738,0.716,0.65,0.478,0.919,0.939,0.863,0.982,0.619,0.326
NCI-H596,0.594,0.657,0.543,0.615,0.953,1,0.989,0.645,0.715,0.457,0.506,0.53,0.449,0.464,0.504,0.458,0.459,0.48,0.357,0.688
NCI-H647,0.627,0.591,0.422,0.303,0.892,0.964,0.584,0.491,0.477,0.187,0.198,0.177,0.137,0.123,1.32,1.19,1.05,0.551,0.282,0.617
NCI-H650,0.512,0.417,0.486,0.537,,0.692,1.23,,0.87,0.997,0.903,0.984,1.05,1.11,,0.961,1.14,,0.876,0.466
NCI-H661,0.779,0.777,0.724,0.61,0.791,0.899,0.819,0.683,0.583,0.814,0.912,0.901,0.88,0.756,0.403,0.831,0.606,0.586,0.511,0.719
NCI-H838,0.785,0.802,0.738,0.671,0.985,0.703,0.608,0.527,0.515,0.236,0.235,0.239,0.229,0.217,1.06,0.989,0.952,1.02,0.824,0.702
NCI-H1355,0.735,0.759,0.554,0.395,1.01,1.17,0.614,1.11,0.763,0.904,0.99,0.99,1.01,0.526,0.725,0.687,0.88,0.572,0.302,0.655
